Test results as given in US20130231347A1, “METHOD OF TREATMENT WITH BRAF INHIBITOR” (GLAXOSMITHKLINE INTELLECTUAL PROPERTY (NO.2) LIMITED, priority 2010, published 2013).
Like-named read-outs stand apart in the source and are kept apart here.

How the values were obtained:
[1] = test system: A375 F11 cells; test: Cell growth inhibition assay (Cell Titer Glo, 3 days); type: cell-based; conditions: Homo sapiens, 72 h, F11: NRAS WT, MEK1 WT, single agent, mean ± std, read-out: IC50, Single Agent Effect, Compound A
Method: (§3) A clonal isolate, hereinafter referred to as “A375 F11”, was obtained from the A375 cell line (obtained from ATCC), based on increased sensitivity to a BRAF inhibitor. A375 F11 cells were exposed to increasing concentrations of Compound A and maintained in a final concentration of 1.26 μM or 1.6 μM. 12R5-3, 12R8-1, 12R8-3, 16R5-5, 16R6-2, 16R6-3 and 16R6-4 were derived as single cell clones from mixed populations of these A375 F11 cells selected to grow in the presence of Compound A. All cells were grown in RPMI 1640 medium containing 10% Fetal Bovine Serum (FBS).
(§4) All cells were cultured without compound, e.g. Compound A, for a minimum of 72 hours prior to cell plating. Cells were assayed in a 96-well tissue culture plate (NUNC 136102) of RPMI medium containing 10% FBS for all cells at 1,000 cells per well. Approximately 24 hours after plating, cells were exposed to ten, three-fold serial dilutions of compound or the combination of the two agents at a constant molar to molar ratio, e.g. 10:1 Compound A to Compound B, in RPMI media containing 10% FBS. Cells were incubated in the presence of compounds for 3 days. ATP levels were determined by adding Cell Titer Glo® (Promega) according to the manufacturer's protocol. Briefly, Cell Titer Glo® was added each plate, incubated for 30 minutes then luminescent signal was read on the SpectraMax L plate reader with a 0.5 sec integration time. Inhibition of cell growth was estimated after treatment with compound or combination of compounds for three days and comparing the Cell Titer Glo® signal to cells treated with vehicle (DMSO). Cell growth was calculated relative to vehicle (DMSO) treated control wells.
(§5) For single agent and combination treatments, cells were exposed to compounds at a fixed-dose-ratio, and dose response curves were fit to the experimental data and analyzed using regression models.

[2] = test system: 12R5-1 (A375 F11 clone with acquired resistance to Compound A); test: as above; type: cell-based; conditions: Homo sapiens, A-375, 72 h, 12R5-1: NRAS WT, MEK1 HET 59delK, single agent, read-out: IC50, Single Agent Effect, Compound A
Method: as §3, §4, §5

[3] = test system: 12R5-5 (A375 F11 clone with acquired resistance to Compound A); test: as above; type: cell-based; conditions: Homo sapiens, A-375, 72 h, 12R5-5: NRAS WT, MEK1 HET 59delK, single agent, read-out: IC50, Single Agent Effect, Compound A
Method: as §3, §4, §5

[4] = test system: 12R5-3 (A375 F11 clone with acquired resistance to Compound A); test: as above; type: cell-based; conditions: Homo sapiens, A-375, 72 h, 12R5-3: NRAS A146A/T, MEK1 WT, single agent, read-out: IC50, Single Agent Effect, Compound A
Method: as §3, §4, §5

[5] = test system: 12R8-1 (A375 F11 clone with acquired resistance to Compound A); test: as above; type: cell-based; conditions: Homo sapiens, A-375, 72 h, 12R8-1: NRAS A146A/T, MEK1 WT, single agent, read-out: IC50, Single Agent Effect, Compound A
Method: as §3, §4, §5

[6] = test system: 12R8-3 (A375 F11 clone with acquired resistance to Compound A); test: as above; type: cell-based; conditions: Homo sapiens, A-375, 72 h, 12R8-3: NRAS A146A/T, MEK1 WT, single agent, read-out: IC50, Single Agent Effect, Compound A
Method: as §3, §4, §5

[7] = test system: 16R6-3 (A375 F11 clone with acquired resistance to Compound A); test: as above; type: cell-based; conditions: Homo sapiens, A-375, 72 h, 16R6-3: NRAS A146A/T, MEK1 P387P/S, single agent, read-out: IC50, Single Agent Effect, Compound A
Method: as §3, §4, §5

[8] = test system: 16R5-5 (A375 F11 clone with acquired resistance to Compound A); test: as above; type: cell-based; conditions: Homo sapiens, A-375, 72 h, 16R5-5: NRAS Q61Q/K, MEK1 P387P/S, single agent, read-out: IC50, Single Agent Effect, Compound A
Method: as §3, §4, §5

[9] = test system: 16R6-2 (A375 F11 clone with acquired resistance to Compound A); test: as above; type: cell-based; conditions: Homo sapiens, A-375, 72 h, 16R6-2: NRAS Q61Q/K, MEK1 P387P/S, single agent, read-out: IC50, Single Agent Effect, Compound A
Method: as §3, §4, §5

[10] = test system: 16R6-4 (A375 F11 clone with acquired resistance to Compound A); test: as above; type: cell-based; conditions: Homo sapiens, A-375, 72 h, 16R6-4: NRAS Q61Q/K, A146A/T, MEK1 P387P/S, single agent, read-out: IC50, Single Agent Effect, Compound A
Method: as §3, §4, §5

[11] = test system: YUSIT1 clones that acquired resistance to Compound A (BRAF V600K); test: Cell growth inhibition assay, resistant YUSIT1 clones; type: cell-based, human
Excerpt: The YUSIT1 melanoma cells were obtained from Yale Dermatology Cell Culture Facility.

[12] = test system: phosphorylation of MEK, ERK, S6P and cyclin D1 protein in A375 cells; test: Western blot of signaling effects, parental cells; type: cell-based, human; conditions: western blot (FIG. 10)
Excerpt: (§1) Phospho-AKT (T308), phospho-AKT (S473), AKT, ERK, phospho-S6P (S235/236), S6P, cyclin D1, phospho-MEK1/2 (S217/S221), MEK1/2, MEK1, MEK2, and cleaved PARP antibodies were purchased from Cell Signaling. Primary antibodies to GAPDH, RAF-1, BRAF, and ARAF were purchased from Santa Cruz Biotechnology. Diphospho-ERK1/2 (T202/Y204) antibodies were purchased from Sigma and p27kip1 antibodies were purchased from Epitomics. Anti-Mouse IRDYE® 800CW antibody was purchased from LI-COR Biosciences. Anti-rabbit ALEXA FLUOR® 680 antibodies were purchased from Invitrogen. Compound A, Compound B, Compound C, and PLX4032 (20) were synthesized by GlaxoSmithKline Research Labs and the structures are shown in FIG. 7.

[13] = test system: phosphorylation of MEK, ERK, S6P in A375 clones resistant to Compound A; test: Western blot of signaling effects, resistant clones; type: cell-based, human; conditions: western blot (FIG. 10)
Excerpt: as §1

[14] = test system: A375 cells expressing MEK1C121S; test: Proliferation of BacMAM-transduced A375 cells; type: cell-based; conditions: Homo sapiens, A-375, read-out: IC50, inhibition of proliferation
Method: (§2) BacMAM constructs were generated using MEK1 cDNA and mutations in MEK1 were introduced using site directed mutagenesis. BacMAM virus particles were prepared as described in the supplemental methods. A375 cells were transduced with the indicated BacMAM virus. Forty-eight hours post transduction, cells were plated for subsequent proliferation and western blot analysis as described above.

[15] = test system: A375 cells expressing MEK1F129L; test: Proliferation of BacMAM-transduced A375 cells; type: cell-based; conditions: Homo sapiens, A-375, read-out: IC50, inhibition of proliferation
Method: as §2

[16] = test system: A375 cells expressing MEK1K59del; test: Proliferation of BacMAM-transduced A375 cells; type: cell-based; conditions: Homo sapiens, A-375, read-out: IC50, inhibition of proliferation
Method: as §2

[17] = test system: A375 cells expressing MEK1P124L; test: Proliferation of BacMAM-transduced A375 cells; type: cell-based; conditions: Homo sapiens, A-375, read-out: IC50, inhibition of proliferation
Method: as §2

[18] = test system: A375 cells expressing MEK1Q56P; test: Proliferation of BacMAM-transduced A375 cells; type: cell-based; conditions: Homo sapiens, A-375, read-out: IC50, inhibition of proliferation
Method: as §2

[19] = test system: A375 cells expressing wild-type MEK1; test: Proliferation of BacMAM-transduced A375 cells; type: cell-based; conditions: Homo sapiens, A-375, read-out: IC50, inhibition of proliferation
Method: as §2

[20] = test system: A375 cells, Mock; test: Proliferation of BacMAM-transduced A375 cells; type: cell-based; conditions: Homo sapiens, A-375, read-out: IC50, inhibition of proliferation
Method: as §2

[21] = test system: A375 F11 clones that acquired resistance to Compound A; test: Cell growth inhibition assay, resistant A375 clones taken together; conditions: Homo sapiens
Method: as §3, §4, §5

Work on `CC(C)(C)c1nc(-c2cccc(NS(=O)(=O)c3c(F)cccc3F)c2F)c(-c2ccnc(N)n2)s1` [Compound A, N-{3-[5-(2-Amino-4-pyrimidinyl)-2-(1,1-dimethylethyl)-1,3-thiazol-4-yl]-2-fluorophenyl}-2,6-difluorobenzenesulfonamide] yielded an IC50 [1] of 24 ± 17 nM, an IC50 [2] of over 10000 nM and an IC50 [3] of over 10000 nM. The IC50 [4] was over 10000 nM, the IC50 [5] was over 10000 nM and the IC50 [6] was over 10000 nM. For the same molecule, the IC50 [7] was over 10000 nM, the IC50 [8] was over 10000 nM and the IC50 [9] was over 10000 nM. For the same molecule, the IC50 [10] was over 10000 nM, the IC50 ([11]; Homo sapiens, read-out: IC50, cell growth inhibition) was over 500 nM and the “reduced sensitivity compared to the parental YUSIT1 cells” value ([11]; YUSIT1 clones resistant to Compound A, single agent (FIG. 9)) was at least 38 fold. For the same molecule, the “decrease of cyclin D1 protein levels” value [12] was “more than 65%”, the “inhibition of phosphorylation of MEK, ERK, and S6P” value [12] was “more than 75%” and the “reduction of ERK phosphorylation” value [13] was “less than 50%”. The “reduction of S6P phosphorylation” value [13] was under 25%, the IC50 [14] was at least 330 nM and the IC50 [15] was 140 nM. The IC50 [16] was 179 nM, the IC50 [17] was 84 nM and the IC50 [18] was at least 420 nM. The IC50 [19] was 28 nM, the IC50 [20] was 30 nM and the IC50 ([21]; A-375, read-out: IC50, cell growth) was over 10000 nM. It also gave an IC50 ([21]; A-375, read-out: IC50, cell growth inhibition, single agent) of over 10000 nM and an IC50 ([21]; A-375, read-out: IC50 of the combination, for Compound A) of 178 to 392 nM.
